The NIST ThermoML archive (doi:10.1016/j.jct.2007.11.011)
Numbers after ± are expanded uncertainties.

Assay: xn = mol fraction of the nth substance listed
Settings: Liquid

CCOS(=O)(=O)[O-].CCn1cc[n+](C)c1 [1-ethyl-3-methylimidazolium ethyl sulfate] + CO
mass density [kg/m3]
Settings	100 kPa	2500 kPa	5000 kPa	10000 kPa	15000 kPa	20000 kPa	25000 kPa	30000 kPa	35000 kPa
283.15 K, x1 = 0.04781	895.14 ± 0.57	896.98 ± 0.6	898.83 ± 0.64	902.39 ± 0.71	905.85 ± 0.78	909.18 ± 0.85	912.41 ± 0.92	915.51 ± 0.98	918.59 ± 1
283.15 K, x1 = 0.1026	968.87 ± 0.48	970.47 ± 0.48	972.09 ± 0.49	975.24 ± 0.5	978.32 ± 0.5	981.31 ± 0.51	984.2 ± 0.51	987.02 ± 0.5	989.77 ± 0.54
283.15 K, x1 = 0.1977	1052.5 ± 0.52	1053.84 ± 0.54	1055.23 ± 0.56	1057.94 ± 0.6	1060.59 ± 0.66	1063.21 ± 0.72	1065.75 ± 0.79	1068.22 ± 0.87	1070.64 ± 0.95
283.15 K, x1 = 0.2432	1081.02 ± 0.55	1082.31 ± 0.58	1083.64 ± 0.61	1086.24 ± 0.69	1088.8 ± 0.77	1091.31 ± 0.87	1093.76 ± 0.97	1096.15 ± 1.1	1098.5 ± 1.2
283.15 K, x1 = 0.3026	1111.91 ± 0.59	1113.14 ± 0.64	1114.41 ± 0.68	1116.86 ± 0.79	1119.26 ± 0.91	1121.66 ± 1.1	1123.99 ± 1.2	1126.28 ± 1.4	1128.48 ± 1.5
283.15 K, x1 = 0.3887	1145.18 ± 0.64	1146.33 ± 0.7	1147.51 ± 0.77	1149.84 ± 0.92	1152.14 ± 1.1	1154.4 ± 1.3	1156.62 ± 1.5	1158.82 ± 1.7	1160.95 ± 1.9
283.15 K, x1 = 0.485	1173.12 ± 0.69	1174.24 ± 0.77	1175.35 ± 0.85	1177.57 ± 1	1179.75 ± 1.2	1181.92 ± 1.5	1184.04 ± 1.7	1186.14 ± 1.9	1188.17 ± 2.2
283.15 K, x1 = 0.589	1195.65 ± 0.73	1196.74 ± 0.81	1197.79 ± 0.91	1199.93 ± 1.1	1202.04 ± 1.4	1204.13 ± 1.6	1206.18 ± 1.9	1208.21 ± 2.1	1210.17 ± 2.4
283.15 K, x1 = 0.7289	1218.63 ± 0.77	1219.71 ± 0.87	1220.74 ± 0.97	1222.79 ± 1.2	1224.82 ± 1.5	1226.84 ± 1.8	1228.82 ± 2.1	1230.77 ± 2.4	1232.67 ± 2.6
283.15 K, x1 = 0.8521	1233.5 ± 0.8	1234.47 ± 0.9	1235.48 ± 1	1237.48 ± 1.3	1239.47 ± 1.6	1241.45 ± 1.9	1243.37 ± 2.2	1245.28 ± 2.5	1247.16 ± 2.8
283.15 K, x1 = 0.9397	1242.49 ± 0.82	1243.52 ± 0.93	1244.49 ± 1.1	1246.47 ± 1.4	1248.43 ± 1.6	1250.39 ± 2	1252.3 ± 2.3	1254.18 ± 2.6	1256.03 ± 2.9
293.15 K, x1 = 0.04781	886.34 ± 0.58	888.27 ± 0.62	890.2 ± 0.66	893.93 ± 0.74	897.52 ± 0.82	900.98 ± 0.9	904.34 ± 0.97	–	–
293.15 K, x1 = 0.1026	960.49 ± 0.49	962.13 ± 0.5	963.82 ± 0.5	967.09 ± 0.52	970.28 ± 0.53	973.36 ± 0.54	976.36 ± 0.54	–	–
293.15 K, x1 = 0.1977	1044.52 ± 0.51	1045.92 ± 0.52	1047.38 ± 0.54	1050.18 ± 0.58	1052.91 ± 0.63	1055.6 ± 0.68	1058.22 ± 0.75	–	–
293.15 K, x1 = 0.2432	1073.23 ± 0.54	1074.55 ± 0.56	1075.93 ± 0.59	1078.61 ± 0.66	1081.24 ± 0.74	1083.82 ± 0.83	1086.34 ± 0.92	–	–
293.15 K, x1 = 0.3026	1104.25 ± 0.58	1105.51 ± 0.62	1106.81 ± 0.67	1109.35 ± 0.77	1111.82 ± 0.88	1114.27 ± 1	1116.67 ± 1.1	–	–
293.15 K, x1 = 0.3887	1137.8 ± 0.63	1138.99 ± 0.69	1140.22 ± 0.75	1142.61 ± 0.89	1144.95 ± 1	1147.27 ± 1.2	1149.55 ± 1.4	–	–
293.15 K, x1 = 0.485	1165.78 ± 0.68	1166.91 ± 0.75	1168.06 ± 0.83	1170.35 ± 1	1172.59 ± 1.2	1174.79 ± 1.4	1176.97 ± 1.6	–	–
293.15 K, x1 = 0.589	1188.53 ± 0.71	1189.55 ± 0.8	1190.65 ± 0.89	1192.84 ± 1.1	1194.99 ± 1.3	1197.11 ± 1.6	1199.2 ± 1.8	–	–
293.15 K, x1 = 0.7289	1211.6 ± 0.75	1212.63 ± 0.85	1213.69 ± 0.95	1215.79 ± 1.2	1217.88 ± 1.5	1219.92 ± 1.7	–	–	–
293.15 K, x1 = 0.8521	1226.42 ± 0.78	1227.39 ± 0.89	1228.45 ± 1	1230.49 ± 1.3	1232.52 ± 1.6	1234.53 ± 1.8	–	–	–
293.15 K, x1 = 0.9397	1235.42 ± 0.8	1236.43 ± 0.91	1237.46 ± 1	1239.51 ± 1.3	1241.5 ± 1.6	1243.48 ± 1.9	–	–	–
